Laboratory results reported in patent publication US20240108618A1, “KRAS G12C INHIBITOR DOSING REGIMENS” (Eli Lilly and Company, priority 2022, published 2024).
“And” between values parts separate entries of the source, which are not always exact repeats. Equal entries are not always repeated.

Tested on: KRAS G12C-mutant advanced solid tumors
Assay: NCT04956640 Phase 1a monotherapy clinical response (BOR, ORR, DCR, DOR, TTR, % change from baseline, treatment duration)
Assay type: in vivo, human
Design: key to Duration of response (months), Median / Best Response: CR: complete response; PR: partial response; uPR: a partial response pending confirmation; SD: stable disease; PD: progressive disease; NE: not estimable
Details: for Time to response (months), Interquartile range / Time to response (months), Median / Duration of response (months), Median / % Change from Baseline in Sum of Diameters for all Target Lesions / Best Response / Time (months) of Death / Time (months) of Partial Response - Confirmed / Time (months) of Progressive Disease / Time (months) of Partial Response - Pending Confirmation and Ongoing / Patients with best overall response of CR or PR: Phase 1a; for Duration of response (months), Median: Kaplan-Meier estimate; for % Change from Baseline in Sum of Diameters for all Target Lesions / Best Response / Time (months) of Death / Time (months) of Partial Response - Confirmed / Time (months) of Progressive Disease / Time (months) of Partial Response - Pending Confirmation and Ongoing: individual patients
Procedure: The term “BOR” as used herein refers to best overall response based on investigator assessments using RECIST criteria (version 1.1). The minimum duration for BOR of SD is at least 6 weeks after the date of first dose of study drug.
The term “DOR” as used herein refers to duration of response, wherein DOR in months is calculated as the event or censoring date minus the response start date plus 1 day divided by 30.4375.
The term “ORR” as used herein refers to objective response rate, wherein objective response rate is the proportion of patients with BOR of CR or PR. Objective response rate, unconfirmed, is the proportion of patients with BOR of CR, PR, or uPR.
The term “TTR” as used herein refers to time to response, wherein TTR in months is calculated as response start date minus first dose date plus 1 day divided by 30.4375.
NCT04956640 includes Phase 1a dose escalation (Part A of NCT04956640, see Table 3) followed by a Phase 1b dose expansion (Parts B to E of NCT04956640, see Table 4). […] Phase 1b dose expansion will include 12 cohorts (See Table 4) to further evaluate safety and clinical activity.

[1] = starting dose 50 BID, no prior KRAS G12Ci, listed as compound of Formula I
[2] = starting dose 50 BID, prior KRAS G12Ci Y, listed as compound of Formula I
[3] = starting dose 100 BID, no prior KRAS G12Ci, listed as compound of Formula I
[4] = starting dose 100 BID, prior KRAS G12Ci Y
[5] = starting dose 100 BID, prior KRAS G12Ci Y, listed as compound of Formula I
[6] = starting dose 150 BID, no prior KRAS G12Ci, listed as compound of Formula I
[7] = starting dose 150 BID, prior KRAS G12Ci Y, listed as compound of Formula I
[8] = starting dose 200 BID, no prior KRAS G12Ci, listed as compound of Formula I
[9] = starting dose 200 BID, prior KRAS G12Ci Y, listed as compound of Formula I
[10] = starting dose 50 mg BID (N = 14)
[11] = starting dose 100 mg BID (N = 24)
[12] = starting dose 150 mg BID (N = 25)
[13] = starting dose 200 mg BID (N = 12)
[14] = starting dose 50 mg BID, incl. intrapatient dose escalation
[15] = starting dose 100 mg BID, incl. intrapatient dose escalation
[16] = starting dose 150 mg BID, 11 patients with scan data
[17] = starting dose 200 mg BID, 5 patients with scan data

`C=CC(=O)N1CCN2C(=O)c3cc(F)c(-c4ccc(F)c5sc(N)c(C#N)c45)c(Cl)c3OCC[C@H]2C1` (single isomer, unassigned) [Formula I] was tested, and the “Time to response (months), Interquartile range” value (“Time … Interquartile range” for short) (Total (N = 75)) was 1.45 months, the “Time to response (months), Median” value (Total (N = 75)) was 1.41 months and the “Duration of response (months), Median” value (Total (N = 75)) was 6.24 months. For the same molecule, the “% Change from Baseline in Sum of Diameters for all Target Lesions” value (“% Change from Baseline in Sum” for short) [1] was 9.7% and −0.3% and −6.0% and −8.6% and −9.9% and −10.5% and −13.1% and −17.1% and −26.8% and −31.6% and −45.0%, the “Best Response” value [1] was “PD and SD (8×) and PR Confirmed (2×)” and the “Time (months) of Death” value [1] was 9.8 months and 5.7 months and 1.8 months and 7.4 months and 11.5 months. The “Time (months) of Partial Response - Confirmed” value (“Time (months) … - Confirmed” for short) [1] was 1.3 months and 1.2 months, the “Time (months) of Progressive Disease” value [1] was 6.7 months and 2.8 months (2×) and 1.2 months and 5.3 months and 2.7 months and 11.1 months and the “% Change from Baseline in Sum” value [2] was −13.0% and 50.0%. For the same molecule, the “Best Response” value [2] was “SD and PD”, the “Time (months) of Death” value [2] was 8.4 months and 1.8 months and the “Time (months) of Progressive Disease” value [2] was 5.6 months and 1.3 months and 1.0 months. The “% Change from Baseline in Sum” value [3] was 0.7% and 0.5% and −4.8% and −6.0% and −8.1% and −17.3% and −21.1% and −22.4% and −22.7% and −25.1% and −29.8% and −30.0% and −32.3% (2×) and −35.4% and −51.4% and −54.0% and −54.8% and −57.1% and −84.4%, the “Best Response” value [3] was “SD (10×) and PD (2×) and PR Pending (2×) and PR Confirmed (6×)” and the “Time (months) of Death” value [3] was 7.0 months and 10.3 months and 7.6 months and 1.7 months. For the same molecule, the “Time (months) … - Confirmed” value [3] was 1.3 months and 1.4 months (4×) and 7.7 months, the “Time (months) of Partial Response - Pending Confirmation and Ongoing” value [3] was 5.5 months and 1.2 months and the “Time (months) of Progressive Disease” value [3] was 2.9 months and 2.7 months and 4.2 months and 6.9 months and 4.1 months and 1.2 months and 5.6 months and 1.3 months and 9.5 months. For the same molecule, the “Time (months) of Death” value [4] was 4.2 months, the “Time (months) … - Confirmed” value [4] was 3.1 months and the “Time (months) of Progressive Disease” value [4] was 2.8 months. The “% Change from Baseline in Sum” value [5] was −4.3% and −40.0% and −44.7%, the “Best Response” value [5] was “SD (2×) and PR Confirmed” and the “Time (months) of Partial Response - Pending Confirmation and Ongoing” value (starting dose 150 BID, no prior KRAS G12Ci) was 1.2 months. The “% Change from Baseline in Sum” value [6] was 27.3% and 4.3% and 3.8% and 3.4% and 0.0% and −0.7% and −5.3% and −7.1% and −8.2% and −11.5% and −16.7% and −18.8% and −23.3% and −24.0% and −37.0% and −41.6% and −51.0% and −52.4% and −60.3% and −67.9% and −91.1%, the “Best Response” value [6] was “PD and SD (13×) and PR Pending and PR Confirmed (6×)” and the “Time (months) of Death” value [6] was 5.3 months and 4.9 months. For the same molecule, the “Time (months) … - Confirmed” value [6] was 1.5 months and 4.1 months and 4.2 months and 1.4 months (3×), the “Time (months) of Progressive Disease” value [6] was 9.7 months and 6.7 months and 7.6 months and 4.1 months and 3.3 months and 1.2 months and the “Time (months) of Death” value (starting dose 150 BID, prior KRAS G12Ci Y) was 3.3 months. For the same molecule, the “% Change from Baseline in Sum” value [7] was −0.7% and −3.3% and −25.8% and −29.7%, the “Best Response” value [7] was “SD (3×) and PD” and the “Time (months) of Progressive Disease” value [7] was 4.1 months and 1.2 months. For the same molecule, the “Time (months) of Death” value (starting dose 200 BID, no prior KRAS G12Ci) was 4.7 months, the “% Change from Baseline in Sum” value [8] was −4.2% and −5.0% and −9.6% and −9.9% and −14.3% and −32.3% and −37.5% and −65.9% and −75.0% and the “Best Response” value [8] was “SD (4×) and PD and PR Confirmed (4×)”. The “Time (months) … - Confirmed” value [8] was 2.8 months and 1.4 months and 1.2 months (2×), the “Time (months) of Progressive Disease” value [8] was 2.9 months and 2.5 months and 1.3 months and 8.3 months and 7.4 months and the “Time (months) of Progressive Disease” value (starting dose 200 BID, prior KRAS G12Ci Y) was 1.3 months. For the same molecule, the “% Change from Baseline in Sum” value [9] was 5.3% and 1.4%, the “Best Response” value [9] was “PD and SD” and the “Patients with best overall response of CR or PR” value (from here on “Patients … of CR or PR”) [10] was 2 (14.3) N′ (%). The “Time … Interquartile range” value [10] was 0.13 months, the “Time to response (months), Median” value [10] was 1.25 months and the “Duration of response (months), Median” value [10] was “NE”. The “Patients … of CR or PR” value [11] was 7 (29.2) N′ (%), the “Time … Interquartile range” value [11] was 1.68 months and the “Time to response (months), Median” value [11] was 1.41 months. The “Duration of response (months), Median” value [11] was 5.45 months, the “Patients … of CR or PR” value [12] was 6 (24.0) N′ (%) and the “Time … Interquartile range” value [12] was 2.69 months. The “Time to response (months), Median” value [12] was 1.46 months, the “Duration of response (months), Median” value [12] was 7.21 months and the “Patients … of CR or PR” value [13] was 4 (33.3) N′ (%). The “Time … Interquartile range” value [13] was 0.87 months, the “Time to response (months), Median” value [13] was 1.33 months and the “Duration of response (months), Median” value [13] was 6.93 months. The “median time to response” value (human, in vivo) was 1.4 month, the “Best observed response PR (unconfirmed and confirmed), patients” value (other tumor types) was 3 and the “Best observed response SD, patients” value (other tumor types) was 6. For the same molecule, the “PR, patients” value (starting dose 50 mg BID) was 0, the DCR [14] was 75% and the ORR [14] was 0%. The “PD, patients” value (starting dose 100 mg BID) was 2 (2 PANC), the DCR [15] was 80% and the ORR [15] was 40%. For the same molecule, the DCR [16] was 90.9%, the ORR [16] was 18.2% and the DCR [17] was 100%. For the same molecule, the ORR [17] was 20%.
